# From US7504398B2, “Substituted-4-(pyrrolo pyrimidin-6-yl)benzenesulphonamide derivatives” (Laboratorios Almirall S.A., priority 2002, dated 2009)
# Key:
# hA2B receptors = biological target: T1, hA2B receptors (Homo sapiens, UniProt P29275); assay: Adenosine 2B receptor subtype competition radioligand binding; conditions: membranes from hA2B receptors transfected to HEK293 cells, [3H]DPCPX as radioligand, 30 min at 25° C.; read-out: IC50 A2B
# T1 construct: purchased Receptor Biology, Inc. (USA); host or cells: HEK293
# T1 sequence (P29275 1-332): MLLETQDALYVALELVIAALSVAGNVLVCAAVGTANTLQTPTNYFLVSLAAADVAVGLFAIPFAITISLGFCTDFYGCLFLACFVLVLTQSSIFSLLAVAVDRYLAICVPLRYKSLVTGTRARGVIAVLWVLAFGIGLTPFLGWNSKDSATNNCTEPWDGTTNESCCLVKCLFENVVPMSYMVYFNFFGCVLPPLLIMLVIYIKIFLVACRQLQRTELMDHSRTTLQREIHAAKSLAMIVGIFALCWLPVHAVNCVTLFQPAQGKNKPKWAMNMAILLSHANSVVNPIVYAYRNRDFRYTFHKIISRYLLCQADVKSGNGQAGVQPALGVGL
# Protocol: Adenosine 2B Receptor Subtype Competition Radioligand Binding
# Human membranes from recombinant A2B receptors were purchased from Receptor Biology, Inc.(USA).
# Competition assays were carried out by incubation of membranes from hA2B receptors transfected to HEK293 cells, [^3H]DPCPX as radioligand, buffer (50 mM Tris-HCl (pH 6.5), 10 mM MgCl2, 1 mM EDTA, 0.1 mM benzamidine, 2 units/ml adenosine deaminase), and unlabelled ligand in a total volume of 0.1 ml for 30 min at 25° C. NECA was used to determinate non-specific binding. Filter over Schleicher&Schuell GF/52 filters (pre-soaked 0.5% polyethylenyimine) in a Brandel cell harvester. Unbound radioligand was removed with 4×2 ml ice-cold 50 mM Tris-Hcl (pH 6.5).
# hA2A receptors = biological target: T2, hA2A receptors (Homo sapiens, UniProt P29274); assay: Adenosine 2A receptor subtype competition radioligand binding; conditions: membranes from hA2A receptors transfected to HEK293 cells, [3H]ZM241385 as radioligand, 90 min at 25° C.; read-out: IC50 A2A
# T2 construct: purchased Receptor Biology, Inc. (USA); host or cells: HEK293
# Protocol: Adenosine 2A Receptor Subtype Competition Radioligand Binding
# Human membranes from recombinant A2A receptors were purchased from Receptor Biology, Inc. (USA).
# Competition assays were carried out by incubation of membranes from hA2A receptors transfected to HEK293 cells, [^3H]ZM241385 as radioligand, buffer (50 mM Tris-HCl (pH 7.4), 10 mM MgCl2, 1 mM EDTA, 2 units/ml adenosine deaminase), and unlabelled ligand in a total volume of 0.2 ml for 90 min at 25° C. NECA was used to determinate non-specific binding. Filter over Schleicher&Schuell GF/52 filters (pre-soaked 0.5% polyethylenyimine) in a Brandel cell harvester. Unbound radioligand was removed with 3×3 ml ice-cold 50 mM Tris-Hcl 50 (pH 7.4), 0.9% NaCl.
# T2 sequence (P29274 whole entry): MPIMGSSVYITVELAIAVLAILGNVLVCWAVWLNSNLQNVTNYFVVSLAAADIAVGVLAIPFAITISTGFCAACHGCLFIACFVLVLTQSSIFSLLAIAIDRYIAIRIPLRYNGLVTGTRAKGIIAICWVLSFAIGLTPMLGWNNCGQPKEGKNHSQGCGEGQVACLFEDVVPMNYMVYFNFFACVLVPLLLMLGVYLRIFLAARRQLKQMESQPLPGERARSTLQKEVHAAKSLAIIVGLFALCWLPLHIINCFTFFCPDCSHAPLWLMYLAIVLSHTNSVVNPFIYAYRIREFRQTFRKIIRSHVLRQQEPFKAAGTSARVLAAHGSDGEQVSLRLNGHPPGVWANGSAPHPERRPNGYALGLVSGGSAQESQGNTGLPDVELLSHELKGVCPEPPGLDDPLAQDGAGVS
Structure (SMILES),IC50 (hA2B receptors),IC50 (hA2A receptors)
"Cn1c(=O)c2[nH]c(-c3ccc(S(=O)(=O)N4CCN(Cc5ccccc5)CC4)cc3)cc2n(C)c1=O [Example 1, 6-[4-(4-Benzylpiperazine-1-sulphonyl)phenyl]-1,3-dimethyl-1,5-dihydropyrrolo[3,2-d]pyrimidine-2,4-dione]",16 nM,–
"Cn1c(=O)c2[nH]c(-c3ccc(S(=O)(=O)N4CCN(Cc5cccc(F)c5)CC4)cc3)cc2n(C)c1=O [Example 3, 6-{4-[4-(3-Fluorobenzyl)piperazine-1-sulphonyl]phenyl}-1,3-dimethyl-1,5-dihydropyrrolo[3,2-d]pyrimidine-2,4-dione]",7 nM,–
"Cn1c(=O)c2[nH]c(-c3ccc(S(=O)(=O)N4CCN(Cc5ccc(Cl)s5)CC4)cc3)cc2n(C)c1=O [Example 18, 6-{4-[4-(5-Chlorothiophen-2-ylmethyl)piperazine-1-sulphonyl]phenyl}-1,3-dimethyl-1,5-dihydropyrrolo[3,2-d]pyrimidine-2,4-dione]",4 nM,85 nM
"COc1ccc(NS(=O)(=O)c2ccc(-c3cc4c([nH]3)c(=O)n(C)c(=O)n4C)cc2)cn1 [Example 36, 4-(1,3-Dimethyl-2,4dioxo-2,3,4,5-tetrahydro-1H-pyrrolo[3,2-d]pyrimidin-6-yl)-N-(6-methoxypyridin-3-yl)benzenesulphonamide]",18 nM,–
"Cn1c(=O)c2[nH]c(-c3ccc(S(=O)(=O)NCCc4ccccn4)cc3)cc2n(C)c1=O [Example 37, 4-(1,3-Dimethyl-2,4-dioxo-2,3,4,5-tetrahydro-1H-pyrrolo[3,2-d]pyrimidin-6-yl)-N-(2-pyridin-2-ylethyl)benzenesulphonamide]",14 nM,–
"Cn1c(=O)c2[nH]c(-c3ccc(S(=O)(=O)Nc4ccccn4)cc3)cc2n(C)c1=O [Example 38, 4-(1,3-Dimethyl-2,4-dioxo-2,3,4,5-tetrahydro-1H-pyrrolo[3,2-d]pyrimidin-6-yl)-N-pyridin-2-ylbenzenesulphonamide]",12 nM,75 nM
"CCn1c(=O)c2[nH]c(-c3ccc(S(=O)(=O)N4CCN(Cc5ccc(Cl)s5)CC4)cc3)cc2n(CC)c1=O [Example 59, 6-{4-[4-(5-Chlorothiophen-2-ylmethyl)piparazine-1-sulphonyl]phenyl}-1,3-diethyl-1,5-dihydropyrrolo[3,2-d]pyrimidine-2,4dione]",–,28 nM
"CCn1c(=O)c2[nH]c(-c3ccc(S(=O)(=O)NC4CCN(Cc5ccc(F)cc5)CC4)cc3)cc2n(CC)c1=O [Example 69, 4-(1,3-Diethyl-2,4-dioxo-2,3,4,5-tetrahydro-1H-pyrrolo[3,2-d]pyrimidin-6-yl)-N-[1-(4-fluorobenzyl)piperidin-4yl]benzenesulphonamide]",–,84 nM
"CCCn1c(=O)c2[nH]c(-c3ccc(S(=O)(=O)NC4CCN(Cc5ccccc5)CC4)cc3)cc2n(CCC)c1=O [Example 97, N-(1-Benzylperidin-4-yl)-4-(2,4-dioxo-1,3-dipropyl-2,3,4,5-tetrahydro-1H-pyrrolo[3,2-d]pyrimidin-6-yl)benzenesulphonamide]",–,60 nM
"CCCn1c(=O)c2[nH]c(-c3ccc(S(=O)(=O)N4CCN(Cc5ccc(F)cc5)CC4)cc3)cc2n(C)c1=O [Example 107, 6-{4-[4-(4-Fluorobenzyl)piperazine-1-sulphonyl]phenyl}-1-methyl-3-propyl-1,5-dihydropyrrolo[3,2-d]pyrimidine-2,4-dione]",9 nM,–
"CCCn1c(=O)c2[nH]c(-c3ccc(S(=O)(=O)N4CCN(Cc5ccc6c(c5)OCO6)CC4)cc3)cc2n(C)c1=O [Example 118, 6[4-(4-Benzol[1,3]dioxol-5-ylmethylpiperazine-1-sulphonyl)phenyl]-1-methyl-3-propyl-1,5-dihydropyrrolo[3,2-d]pyrimidine-2,4-dione]",6 nM,–
"CCCn1c(=O)c2[nH]c(-c3ccc(S(=O)(=O)N4CCN(c5ccccn5)CC4)cc3)cc2n(C)c1=O [Example 126, 1-Methyl-3-propyl-6-[4-(4-pyridin-2-yipiperazine-1-sulphonyl)phenyl]-1,5-dihydropyrrolo[3,2-d]pyrimidin-2,4-dione]",12 nM,–
"CCCn1c(=O)c2[nH]c(-c3ccc(S(=O)(=O)NCCc4ccccn4)cc3)cc2n(C)c1=O [Example 132, 4-(1-Methyl-2,4-dioxo-3-propyl-2,3,4,5-tetrahydro-1H-pyrrolo[3,2-d]pyrimidin-6-yl)-N-(2-pyridin-2-ylethyl)benzenesulphonamide]",17 nM,–
"Cn1c(=O)c2[nH]c(-c3ccc(S(=O)(=O)NCCOc4ccccn4)cc3)cc2n(C)c1=O [Example 172, 4-(1,3-Dimethyl-2,4-dioxo-2,3,4,5-tetrahydro-1H-pyrrolo[3,2-d]pyrimidin-6-yl)-N-[2-(pyridin-2-yloxy)ethyl]benzenesulfonamide]",17 nM,–
"COc1cccc(OCCNS(=O)(=O)c2ccc(-c3cc4c([nH]3)c(=O)n(C)c(=O)n4C)cc2)n1 [Example 173, 4-(1,3-Dimethyl-2,4-dioxo-2,3,4,5-tetrahydro-1H-pyrrolo[3,2-d]pyrimidin-6-yl)-N-[2-(6-methoxypyridin-2-yloxy)ethyl]benzenesulfonamide]",5 nM,–
